# Results taken from PubChem BioAssay (NCI).
#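 Five compound concentrations were applied to cells in 96-well plates for 48 hours; endpoints were derived by simple linear interpolation of the resulting dose-response curve. TGI is the concentration that stops growth completely.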
# Key:
# Experiment in all cases: DTP human tumour cell line panel, 48 h
# CCRF-CEM leukemia = tested on: CCRF-CEM leukemia
# HCT-15 colon = tested on: HCT-15 colon
# OVCAR-8 ovarian = tested on: OVCAR-8 ovarian
# RPMI-8226 leukemia = tested on: RPMI-8226 leukemia
# LOX IMVI melanoma = tested on: LOX IMVI melanoma
# COLO 205 colon = tested on: COLO 205 colon
# SF-268 CNS = tested on: SF-268 CNS
# NCI-H460 lung = tested on: NCI-H460 lung
# KM20L2 colon = tested on: KM20L2 colon
# OVCAR-4 ovarian = tested on: OVCAR-4 ovarian
# K-562 leukemia = tested on: K-562 leukemia
# MALME-3M melanoma = tested on: MALME-3M melanoma
# DMS 273 small cell lung = tested on: DMS 273 small cell lung
# M14 melanoma = tested on: M14 melanoma
# U251 CNS = tested on: U251 CNS
# 786-0 renal = tested on: 786-0 renal
# KM12 colon = tested on: KM12 colon
# SNB-75 CNS = tested on: SNB-75 CNS
# SK-MEL-5 melanoma = tested on: SK-MEL-5 melanoma
# NCI-H23 lung = tested on: NCI-H23 lung
# LXFL 529 NSCLC = tested on: LXFL 529 NSCLC
# RXF 393 renal = tested on: RXF 393 renal
# SK-MEL-2 melanoma = tested on: SK-MEL-2 melanoma
# UACC-62 melanoma = tested on: UACC-62 melanoma
# RXF-631 renal = tested on: RXF-631 renal
# TK-10 renal = tested on: TK-10 renal
# UACC-257 melanoma = tested on: UACC-257 melanoma
# DMS 114 small cell lung = tested on: DMS 114 small cell lung
# SK-MEL-28 melanoma = tested on: SK-MEL-28 melanoma
# SNB-19 CNS = tested on: SNB-19 CNS
# SW-620 colon = tested on: SW-620 colon
# OVCAR-3 ovarian = tested on: OVCAR-3 ovarian
# HOP-62 NSCLC = tested on: HOP-62 NSCLC
# HT29 colon = tested on: HT29 colon
# M19-MEL melanoma = tested on: M19-MEL melanoma
# XF 498 CNS = tested on: XF 498 CNS
# UO-31 renal = tested on: UO-31 renal
# SF-539 CNS = tested on: SF-539 CNS
# SN12C renal = tested on: SN12C renal
# ACHN renal = tested on: ACHN renal
# HOP-92 NSCLC = tested on: HOP-92 NSCLC
# OVCAR-5 ovarian = tested on: OVCAR-5 ovarian
# A498 renal = tested on: A498 renal
# A549 NSCLC = tested on: A549 NSCLC
# SK-OV-3 ovarian = tested on: SK-OV-3 ovarian
# EKVX NSCLC = tested on: EKVX NSCLC
# MOLT-4 leukemia = tested on: MOLT-4 leukemia
# NCI-H522 lung = tested on: NCI-H522 lung
# SF-295 CNS = tested on: SF-295 CNS
# NCI-H226 lung = tested on: NCI-H226 lung
# HOP-18 NSCLC = tested on: HOP-18 NSCLC
# HL-60(TB) leukemia = tested on: HL-60(TB) leukemia
# CAKI-1 renal = tested on: CAKI-1 renal
# IGROV1 ovarian = tested on: IGROV1 ovarian
# HCT-116 colon = tested on: HCT-116 colon
# DLD-1 colon = tested on: DLD-1 colon
# HCC-2998 colon = tested on: HCC-2998 colon
# SR leukemia = tested on: SR leukemia
# SNB-78 CNS = tested on: SNB-78 CNS
smiles,measurement,setting,value
C=CCN(N=O)C(=O)NCCCC(NC(C)=O)C(=O)NCc1ccccc1 (stereo unspecified),TGI,CCRF-CEM leukemia,> 100 µM
same,TGI,HCT-15 colon,> 100 µM
same,TGI,OVCAR-8 ovarian,> 100 µM
same,TGI,RPMI-8226 leukemia,> 100 µM
same,TGI,LOX IMVI melanoma,> 100 µM
same,TGI,COLO 205 colon,> 100 µM
same,TGI,SF-268 CNS,> 100 µM
same,TGI,NCI-H460 lung,> 100 µM
same,TGI,KM20L2 colon,> 100 µM
same,TGI,OVCAR-4 ovarian,> 100 µM
same,TGI,K-562 leukemia,> 100 µM
same,TGI,MALME-3M melanoma,> 100 µM
same,TGI,DMS 273 small cell lung,> 100 µM
same,TGI,M14 melanoma,> 100 µM
same,TGI,U251 CNS,> 100 µM
same,TGI,786-0 renal,> 100 µM
same,TGI,KM12 colon,> 100 µM
same,TGI,SNB-75 CNS,> 100 µM
same,TGI,SK-MEL-5 melanoma,> 100 µM
same,TGI,NCI-H23 lung,> 100 µM
same,TGI,LXFL 529 NSCLC,> 100 µM
same,TGI,RXF 393 renal,> 100 µM
same,TGI,SK-MEL-2 melanoma,> 100 µM
same,TGI,UACC-62 melanoma,> 100 µM
same,TGI,RXF-631 renal,> 100 µM
same,TGI,TK-10 renal,> 100 µM
same,TGI,UACC-257 melanoma,> 100 µM
same,TGI,DMS 114 small cell lung,> 100 µM
same,TGI,SK-MEL-28 melanoma,> 100 µM
same,TGI,SNB-19 CNS,> 100 µM
same,TGI,SW-620 colon,> 100 µM
same,TGI,OVCAR-3 ovarian,> 100 µM
same,TGI,HOP-62 NSCLC,> 100 µM
same,TGI,HT29 colon,> 100 µM
same,TGI,M19-MEL melanoma,> 100 µM
same,TGI,XF 498 CNS,> 100 µM
same,TGI,UO-31 renal,> 100 µM
same,TGI,SF-539 CNS,> 100 µM
same,TGI,SN12C renal,> 100 µM
same,TGI,ACHN renal,> 100 µM
same,TGI,HOP-92 NSCLC,> 100 µM
same,TGI,OVCAR-5 ovarian,> 100 µM
same,TGI,A498 renal,> 100 µM
same,TGI,A549 NSCLC,> 100 µM
same,TGI,SK-OV-3 ovarian,> 100 µM
same,TGI,EKVX NSCLC,> 100 µM
same,TGI,MOLT-4 leukemia,> 100 µM
same,TGI,NCI-H522 lung,> 100 µM
same,TGI,SF-295 CNS,> 100 µM
same,TGI,NCI-H226 lung,> 100 µM
same,TGI,HOP-18 NSCLC,> 100 µM
same,TGI,HL-60(TB) leukemia,> 100 µM
same,TGI,CAKI-1 renal,> 100 µM
same,TGI,IGROV1 ovarian,> 100 µM
O=c1oc2c3ccc4ccccc4c3n(CCCN3CCCCC3)c2c2ccccc12,TGI,CCRF-CEM leukemia,> 100 µM
same,TGI,HCT-15 colon,> 100 µM
same,TGI,HCT-116 colon,> 100 µM
same,TGI,OVCAR-8 ovarian,> 100 µM
same,TGI,RPMI-8226 leukemia,> 100 µM
same,TGI,LOX IMVI melanoma,> 100 µM
same,TGI,COLO 205 colon,> 100 µM
same,TGI,SF-268 CNS,> 100 µM
same,TGI,NCI-H460 lung,> 100 µM
same,TGI,KM20L2 colon,> 100 µM
same,TGI,OVCAR-4 ovarian,> 100 µM
same,TGI,DLD-1 colon,> 100 µM
same,TGI,K-562 leukemia,63.9 µM
same,TGI,MALME-3M melanoma,41 µM
same,TGI,M14 melanoma,24.2 µM
same,TGI,786-0 renal,37.2 µM
same,TGI,KM12 colon,> 100 µM
same,TGI,SNB-75 CNS,> 100 µM
same,TGI,LXFL 529 NSCLC,> 100 µM
same,TGI,SK-MEL-2 melanoma,> 100 µM
same,TGI,UACC-62 melanoma,> 100 µM
same,TGI,RXF-631 renal,> 100 µM
same,TGI,TK-10 renal,> 100 µM
same,TGI,UACC-257 melanoma,> 100 µM
same,TGI,DMS 114 small cell lung,> 100 µM
same,TGI,SK-MEL-28 melanoma,50.3 µM
same,TGI,SNB-19 CNS,> 100 µM
same,TGI,SW-620 colon,> 100 µM
same,TGI,OVCAR-3 ovarian,> 100 µM
same,TGI,HOP-62 NSCLC,> 100 µM
same,TGI,HT29 colon,> 100 µM
same,TGI,HCC-2998 colon,> 100 µM
same,TGI,M19-MEL melanoma,> 100 µM
same,TGI,XF 498 CNS,> 100 µM
same,TGI,UO-31 renal,> 100 µM
same,TGI,SF-539 CNS,40.8 µM
same,TGI,ACHN renal,> 100 µM
same,TGI,HOP-92 NSCLC,> 100 µM
same,TGI,OVCAR-5 ovarian,> 100 µM
same,TGI,A549 NSCLC,> 100 µM
same,TGI,SK-OV-3 ovarian,> 100 µM
same,TGI,EKVX NSCLC,> 100 µM
same,TGI,MOLT-4 leukemia,> 100 µM
same,TGI,NCI-H522 lung,> 100 µM
same,TGI,SF-295 CNS,> 100 µM
same,TGI,HOP-18 NSCLC,> 100 µM
same,TGI,HL-60(TB) leukemia,42.9 µM
same,TGI,SR leukemia,> 100 µM
same,TGI,CAKI-1 renal,> 100 µM
same,TGI,IGROV1 ovarian,> 100 µM
Cn1c(=O)nc2n(-c3cccc(Cl)c3)c3ccccc3nc-2c1=O,TGI,CCRF-CEM leukemia,50.5 µM
same,TGI,HCT-15 colon,30.2 µM
same,TGI,HCT-116 colon,30.8 µM
same,TGI,OVCAR-8 ovarian,78.1 µM
same,TGI,RPMI-8226 leukemia,51 µM
same,TGI,LOX IMVI melanoma,59.8 µM
same,TGI,COLO 205 colon,16 µM
same,TGI,SF-268 CNS,> 100 µM
same,TGI,NCI-H460 lung,26.2 µM
same,TGI,KM20L2 colon,23.8 µM
same,TGI,OVCAR-4 ovarian,24.6 µM
same,TGI,K-562 leukemia,38.2 µM
same,TGI,MALME-3M melanoma,12.3 µM
same,TGI,DMS 273 small cell lung,25.1 µM
same,TGI,M14 melanoma,24 µM
same,TGI,U251 CNS,37.7 µM
same,TGI,786-0 renal,> 100 µM
same,TGI,KM12 colon,44.9 µM
same,TGI,SNB-75 CNS,51.8 µM
same,TGI,SK-MEL-5 melanoma,25.2 µM
same,TGI,SNB-78 CNS,57.7 µM
same,TGI,NCI-H23 lung,21.9 µM
same,TGI,LXFL 529 NSCLC,72.8 µM
same,TGI,RXF 393 renal,83.3 µM
same,TGI,SK-MEL-2 melanoma,40.7 µM
same,TGI,UACC-62 melanoma,6.36 µM
same,TGI,RXF-631 renal,40.8 µM
same,TGI,TK-10 renal,73.6 µM
same,TGI,UACC-257 melanoma,23.8 µM
same,TGI,DMS 114 small cell lung,20 µM
same,TGI,SW-620 colon,25 µM
same,TGI,OVCAR-3 ovarian,6.61 µM
same,TGI,HOP-62 NSCLC,90.9 µM
same,TGI,HT29 colon,21.4 µM
same,TGI,HCC-2998 colon,25.6 µM
same,TGI,XF 498 CNS,35.3 µM
same,TGI,UO-31 renal,> 100 µM
same,TGI,SF-539 CNS,33 µM
same,TGI,SN12C renal,28.5 µM
same,TGI,ACHN renal,29.8 µM
same,TGI,OVCAR-5 ovarian,40.8 µM
same,TGI,A498 renal,79.3 µM
same,TGI,A549 NSCLC,33 µM
same,TGI,SK-OV-3 ovarian,> 100 µM
same,TGI,EKVX NSCLC,26.9 µM
same,TGI,MOLT-4 leukemia,42 µM
same,TGI,NCI-H522 lung,30.7 µM
same,TGI,SF-295 CNS,62.1 µM
same,TGI,NCI-H226 lung,74.9 µM
same,TGI,HOP-18 NSCLC,85.5 µM
same,TGI,CAKI-1 renal,70 µM
same,TGI,IGROV1 ovarian,54 µM
